# Laboratory results as given in paper PMC12238268, “The immunomodulatory p43 secreted protein of Trichuris whipworm parasites is a lipid carrier that binds signalling lipids and precursors” (Scientific Reports, 2025).
# Legend:
# Format in all cases: binding
# p43 (Tm-DLP-1) [1] = target: T1, p43 (Tm-DLP-1) (Trichuris muris, UniProt A0A5S6QYG9); experiment: intrinsic fluorescence enhancement of ligand; conditions: PBS pH 7.2
# T1 construct: native, purified from adult worm excretory/secretory medium by Ni-NTA (natural His-rich tail) and Superdex 75; signal peptide predicted cleaved between 17 and 18
# T1 sequence (A0A5S6QYG9 entry or part of it): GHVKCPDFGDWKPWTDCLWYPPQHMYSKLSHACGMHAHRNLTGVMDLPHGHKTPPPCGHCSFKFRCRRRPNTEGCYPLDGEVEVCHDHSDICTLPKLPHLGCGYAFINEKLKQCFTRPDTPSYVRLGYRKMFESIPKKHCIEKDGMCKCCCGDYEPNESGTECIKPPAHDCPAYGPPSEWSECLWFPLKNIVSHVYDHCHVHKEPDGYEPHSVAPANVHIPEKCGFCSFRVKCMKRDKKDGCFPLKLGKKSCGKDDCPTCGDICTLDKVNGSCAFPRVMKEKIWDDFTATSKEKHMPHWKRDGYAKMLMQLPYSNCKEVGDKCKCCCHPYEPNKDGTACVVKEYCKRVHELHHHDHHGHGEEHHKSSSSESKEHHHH
# p43 (Tm-DLP-1) [2] = target: T1, p43 (Tm-DLP-1); experiment: fluorescence enhancement and blue shift of probe; conditions: approximately 1 μM DACA; PBS pH 7.2
# p43 (Tm-DLP-1) [3] = target: T1, p43 (Tm-DLP-1); experiment: fluorescence titration
smiles,measurement,setting,value
CC1=C(/C=C/C(C)=C/C=C/C(C)=C/CO)C(C)(C)CCC1 [retinol],intrinsic fluorescence enhancement of ligand,p43 (Tm-DLP-1) [1]; approximately 1 μM retinol,"p43 bound retinol, from which it was displaceable by oleic acid (Fig. 2A)"
CCCCCCC(NS(=O)(=O)c1cccc2c(N(C)C)cccc12)C(=O)O (stereo not shown) [dansyl aminocaprylic acid],fluorescence enhancement and blue shift of probe,p43 (Tm-DLP-1) [2],"essentially the same observations with another fluorescent probe, dansyl aminocaprylic acid (DACA)"
CC\C=C/C=C/C=C/C=C\CCCCCCCC(=O)O [cis-parinaric acid],intrinsic fluorescence enhancement of ligand,p43 (Tm-DLP-1) [1]; approximately 4 μM cPnA,p43 bound cPnA strongly and was displaceable with oleic acid (Fig. 1C)
"CN(C)c1cccc2c(S(=O)(=O)NCCCCCCCCCCC(=O)O)cccc12 [DAUDA, 11-((5-dimethylaminonaphthalene-1-sulfonyl)amino)undecanoic]",Kd,p43 (Tm-DLP-1) [3],350 nM
